Here are results for six molecules from patent US4195171A, “Derivatives of an antibiotic XK-62-2 and process for the production thereof” (Abbott Laboratories, priority 1975, dated 1980).

≈ marks a conversion by molar mass, not a printed value. Like-named read-outs stand apart in the source and are kept apart here.

Series [1] concerns Pseudomonas aeruginosa KY 8519. Put plainly: Antibacterial spectrum, MIC by agar dilution method. The class given is cell-based. From the text: (§1) XK-62-2, 1-N-[L-(-)-α-hydroxy-γ-aminobutyryl] XK-62-2, Compounds (I-1), (I-2), (II-1) and (II-2) against various Gram-negative and Gram-positive bacteria determined by agar dilution method at pH 7.2.
^6 produces neomycinkanamycin phosphotransferase Type I and Type II

Series [2] has as its system Pseudomonas aeruginosa KY 8563. The description is as above. The format is cell-based.
Description: as §1
^7 produces gentamicin acetyltransferase Type III

Series [3] in a line: Acute toxicity (LD50) in mice. The following applies: mouse, in vivo, route not stated. From the text:
XK-62-2, Compounds (I-2), (II-1) and (II-2) in mice.

For series [4], the system named is Pseudomonas aeruginosa KY 8510. Kind of series: Antibacterial spectrum, MIC by agar dilution method. The class given is cell-based.
Description: as §1
(§2) ^1 produces kanamycin acetyltransferase

For series [5], the system named is Serratia marcescens POE 1065. The description is as above. The class given is cell-based.
Description: as §1, §2

Series [6] concerns Pseudomonas aeruginosa KY 8516. The series is described as above. The class given is cell-based.
Description: as §1, §2

Series [7] relates to Escherichia coli KY Z-343. Described as above. Conditions: KYZ343, pH 7.2, strain produces kanamycin acetyltransferase, read-out: Minimum Inhibitory Concentration. The class given is cell-based.
Description: as §1, §2

The test system of series [8] is Pseudomonas aeruginosa Z-445. Described as above. The format is cell-based. Conditions: Z445, pH 7.2, strain produces 6N-acetyltransferase Type III, read-out: Minimum Inhibitory Concentration.
Description: as §1
(§3) ^8 produces 6N-acetyltransferase Type III

The subject of series [9] is Pseudomonas aeruginosa KY Z-444. Described as above. The format is cell-based.
Description: as §1, §3

Where [10] appears, read: KY8519, agar dilution, pH 7.2, strain produces neomycinkanamycin phosphotransferase Type I and Type II, read-out: Minimum Inhibitory Concentration.
Setting [11] is: KY8563, agar dilution, pH 7.2, strain produces gentamicin acetyltransferase Type III, read-out: Minimum Inhibitory Concentration.
Setting [12] is: KY8510, agar dilution, pH 7.2, strain produces kanamycin acetyltransferase, read-out: Minimum Inhibitory Concentration.
Where [13] appears, read: POE1065, agar dilution, pH 7.2, strain produces kanamycin acetyltransferase, read-out: Minimum Inhibitory Concentration.
[14] abbreviates: KY8516, agar dilution, pH 7.2, strain produces kanamycin acetyltransferase, read-out: Minimum Inhibitory Concentration.
The mark [15] stands for this setting: KYZ444, agar dilution, pH 7.2, strain produces 6N-acetyltransferase Type III, read-out: Minimum Inhibitory Concentration.
[16] abbreviates: KY8563, pH 7.2, read-out: Minimum Inhibitory Concentration.
The mark [17] stands for this setting: KY8510, pH 7.2, read-out: Minimum Inhibitory Concentration.
[18] abbreviates: POE1065, pH 7.2, read-out: Minimum Inhibitory Concentration.
[19] abbreviates: KY8516, pH 7.2, read-out: Minimum Inhibitory Concentration.

For `CNCC1CCC(N)C(OC2C(N)CC(NC(=O)C(O)CN)C(OC3OCC(C)(O)C(NC)C3O)C2O)O1` (racemic) [1-N-(DL-α-hydroxy-β-aminopropionyl) XK-62-2, reference compound], the MIC in series [1] (setting [10]) was 6.25 µg/mL (≈ 11.4 µM); in series [2] (setting [11]) it was 3.12 µg/mL (≈ 5.67 µM); in [4] (setting [12]), 3.12 µg/mL (≈ 5.67 µM); in series [5] (setting [13]), 0.78 µg/mL (≈ 1.42 µM); in series [6] (setting [14]), 3.12 µg/mL (≈ 5.67 µM); in [7], 0.2 µg/mL (≈ 0.363 µM). Moreover, the MIC worked out at 3.12 µg/mL (≈ 5.67 µM) in series [8] and 1.56 µg/mL (≈ 2.83 µM) in series [9] (setting [15]). In series [3], this molecule showed an LD50 of 185 mg/kg.

In the case of `CC1(O)COC(OC2C(NC(=O)C(O)CN)CC(N)C(OC3OC(CN)CCC3N)C2O)C(O)C1N` (racemic) [Compound I-1, 3"-N, 6'-N-didemethyl-1-N-(DL-α-hydroxy-β-aminopropionyl) XK-62-2], the MIC in series [1] (KY8519, pH 7.2, read-out: Minimum Inhibitory Concentration) stood at 3.12 µg/mL (≈ 5.97 µM); in series [2] (setting [11]), 1.56 µg/mL (≈ 2.99 µM); in series [4] (setting [12]), 12.5 µg/mL (≈ 23.9 µM); in series [5] (setting [13]), 50 µg/mL (≈ 95.7 µM); in series [6] (setting [14]), 50 µg/mL (≈ 95.7 µM); in series [7], 0.4 µg/mL (≈ 0.765 µM). Further, the MIC came out at 6.25 µg/mL (≈ 12 µM) in [8] and 1.56 µg/mL (≈ 2.99 µM) in series [9] (setting [15]).

As for `CNCC1CCC(N)C(OC2C(N)CC(NC(=O)C(O)CN)C(OC3OCC(C)(O)C(N)C3O)C2O)O1` (racemic) [II-1, 3"-N-demethyl-1-N-(DL-α-hydroxy-β-aminopropionyl) XK-62-2], the MIC in series [1] (setting [10]) was 6.25 µg/mL (≈ 11.6 µM); in series [2] (setting [16]) it was 3.12 µg/mL (≈ 5.81 µM); in [4] (setting [17]), 3.12 µg/mL (≈ 5.81 µM); in [5] (setting [18]) it was 3.12 µg/mL (≈ 5.81 µM); in series [6] (setting [19]), 3.12 µg/mL (≈ 5.81 µM); in series [7], 0.4 µg/mL (≈ 0.745 µM). The MIC in series [8] was determined as 6.25 µg/mL (≈ 11.6 µM); in series [9] (setting [15]), 1.56 µg/mL (≈ 2.91 µM). In [3], the LD50 is 175 mg/kg.

With `CNCC1CCC(N)C(OC2C(N)CC(NC(=O)C(O)CCN)C(OC3OCC(C)(O)C(NC)C3O)C2O)O1` (single isomer, unassigned) [1-N-[L-(-)-α-hydroxy-γ-aminobutyryl] XK-62-2, reference compound], the MIC in [1] (setting [10]) was 6.25 µg/mL (≈ 11.1 µM); in series [2] (setting [11]), 6.25 µg/mL (≈ 11.1 µM); in [4] (setting [12]), 3.12 µg/mL (≈ 5.53 µM); in series [5] (setting [13]), 0.78 µg/mL (≈ 1.38 µM); in [6] (setting [14]), 3.12 µg/mL (≈ 5.53 µM); in series [7], 0.1 µg/mL (≈ 0.177 µM). Moreover, the results for the MIC in [8] and in series [9] (setting [15]) were 6.25 µg/mL (≈ 11.1 µM) and 1.56 µg/mL (≈ 2.76 µM), respectively. The molecule further registered an LD50 in series [3] of 180 mg/kg.

Regarding `CC1(O)COC(OC2C(NC(=O)C(O)CCN)CC(N)C(OC3OC(CN)CCC3N)C2O)C(O)C1N` (single isomer, unassigned) [Compound I-2, 3"-N, 6'-N-didemethyl-1-N-[L-(-)-α-hydroxy-γ-aminobutyryl] XK-62-2], the MIC in series [1] (setting [10]) stood at 3.12 µg/mL (≈ 5.81 µM); in [2] (setting [11]), 3.12 µg/mL (≈ 5.81 µM); in [4] (setting [12]) it was 12.5 µg/mL (≈ 23.3 µM); in [5] (setting [13]) it was 25 µg/mL (≈ 46.6 µM); in series [6] (setting [14]) it was 25 µg/mL (≈ 46.6 µM); in series [7], 0.2 µg/mL (≈ 0.373 µM). The MIC in series [8] stood at 6.25 µg/mL (≈ 11.6 µM); in series [9] (KYZ444, pH 7.2, read-out: Minimum Inhibitory Concentration) it was 1.56 µg/mL (≈ 2.91 µM). The LD50 in series [3] is 200 mg/kg.

Consider `CNCC1CCC(N)C(OC2C(N)CC(NC(=O)C(O)CCN)C(OC3OCC(C)(O)C(N)C3O)C2O)O1` (single isomer, unassigned) [II-2, 3"-N-demethyl-1-N-[L-(-)-α-hydroxy-γ-aminobutyryl] XK-62-2], for which the MIC in series [1] (setting [10]) is 6.25 µg/mL (≈ 11.4 µM); in series [2] (setting [16]), 3.12 µg/mL (≈ 5.67 µM); in series [4] (setting [17]), 3.12 µg/mL (≈ 5.67 µM); in [5] (setting [18]), 3.12 µg/mL (≈ 5.67 µM); in series [6] (setting [19]) it was 3.12 µg/mL (≈ 5.67 µM); in [7] it was 0.2 µg/mL (≈ 0.363 µM). Further, the MIC in series [8] was determined as 6.25 µg/mL (≈ 11.4 µM); in series [9] (setting [15]), 1.56 µg/mL (≈ 2.83 µM). The molecule also came in with an LD50 in series [3] of 250 mg/kg.
